Read-outs that look alike come from different tables or passages of the source.
Assays:
[1] = biological target: T1, GST-LXRβ ligand-binding domain (Homo sapiens, UniProt P55055); assay: TR-FRETβ activity assay (NCoA3 coactivator peptide recruitment); type: biochemical; details: 1 μM 24(S)-25-epoxycholesterol prestimulation
T1 construct: amino acids 156-461; NP009052; made in house; host or cells: E. coli
T1 sequence (P55055 156-460 limits assumed): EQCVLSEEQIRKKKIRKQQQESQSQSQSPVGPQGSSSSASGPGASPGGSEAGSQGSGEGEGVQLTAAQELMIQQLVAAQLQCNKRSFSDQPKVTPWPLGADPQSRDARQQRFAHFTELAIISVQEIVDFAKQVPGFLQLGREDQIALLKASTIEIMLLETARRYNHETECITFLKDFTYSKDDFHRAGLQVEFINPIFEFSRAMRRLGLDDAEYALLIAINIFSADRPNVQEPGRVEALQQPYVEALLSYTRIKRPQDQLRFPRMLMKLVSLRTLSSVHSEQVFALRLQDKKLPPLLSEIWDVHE
Summary of the method: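 E. coli-expressed GST-LXRβ LBD (aa 156-461, 76 nM) with biotinylated NCoA3 peptide (400 nM) in Tris/HCl pH 6.8 containing 1 μM 24(S)-25-epoxycholesterol agonist. Compounds tested at 50 μM down to 0.002 μM in triplicate. TR-FRET (Tb cryptate/XL665, ex 340, em 615/665 nm) read after 1 h at 4° C.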

LXRα [2] = biological target: T2, LXRα (Homo sapiens, UniProt Q13133); assay: LXR Gal4 reporter transient transfection assay (mammalian two-hybrid, HEK293), LXRα; type: cell-based; details: ligand-binding domain (LBD) of LXRα, HEK293; read-out: LBD-M2H Gal4α
T2 construct: expressed in transfected cells; host or cells: HEK293
T2 sequence (Q13133 155-447): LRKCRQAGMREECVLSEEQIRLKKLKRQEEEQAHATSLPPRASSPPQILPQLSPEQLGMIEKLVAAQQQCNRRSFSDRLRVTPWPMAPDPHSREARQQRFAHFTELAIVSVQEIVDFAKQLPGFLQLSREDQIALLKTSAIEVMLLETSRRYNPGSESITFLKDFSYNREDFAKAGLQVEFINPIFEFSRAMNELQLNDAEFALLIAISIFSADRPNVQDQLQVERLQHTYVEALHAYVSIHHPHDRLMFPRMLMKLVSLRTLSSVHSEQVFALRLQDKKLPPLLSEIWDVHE
Experimental: (§1) LXRα and LXRβ activity status was determined via detection of interaction with coactivator and corepressor proteins in mammalian two-hybrid experiments (M2H). For this, via transient transfection the full length (FL) proteins of LXRα (amino acids 1-447; NP005684; SEQ ID NO:1) or LXRβ-(amino acids 1-461; NP009052; SEQ ID NO:2) or the ligand-binding domains (LBD) of LXRα (amino acids 155-447 SEQ ID NO:3) or LXRβ (amino acids 156-461; SEQ ID NO:4) were expressed from pCMV-AD (Stratagene) as fusions to the transcriptional activation domain of NFkB. As cofactors, domains of either the steroid receptor coactivator 1 (SRC1; amino acids 552-887; SEQ ID NO:5) or of the corepressor NCoR (amino acids 1906-2312; NP006302; SEQ ID NO:6) were expressed as fusions to the DNA binding domain of the yeast transcription factor GAL4 (from pCMV-BD; Stratagene). Interaction was monitored via activation of a coexpressed Firefly Luciferase Reporter gene under control of a promoter containing repetitive GAL4 response elements (vector pFRLuc; Stratagene). Transfection efficiency was controlled via cotransfection of constitutively active pRL-CMV Renilla reniformis luciferase reporter (Promega). HEK293 cells were grown in minimum essential medium (MEM) with 2 mM L-glutamine and Earle's balanced salt solution supplemented with 8.3% fetal bovine serum, 0.1 mM non-essential amino acids, 1 mM sodium pyruvate, at 37° C. in 5% CO2. 3.5×10^4 cells/well were plated in 96-well cell culture plates in growth medium supplemented with 8.3% fetal bovine serum for 16-20 h to ˜90% confluency. For transfection, medium was taken off and LXR and cofactor expressing plasmids as well as the reporter plasmids are added in 30 μL OPTIMEM/well including polyethylene-imine (PEI) as vehicle. Typical amounts of plasmids transfected/well: pCMV-AD-LXR (5 ng), pCMV-BD-cofactor (5 ng), pFR-Luc (100 ng), pRL-CMV (0.5 ng). Compound stocks were prepared in DMSO, prediluted in MEM to a total volume of 120 μL, and added 4 h after addition of the transfection mixture (final vehicle concentration not exceeding 0.2%). Cells were incubated for additional 16 h, lysed for 10 min in 1×Passive Lysis Buffer (Promega) and Firefly and Renilla luciferase activities were measured sequentially in the same cell extract using buffers containing D-luciferine and coelenterazine, respectively. Measurements of luminescence were done in a BMG-luminometer.
(§2) The potencies of Compound 21/3 and its analog, Compound pre-6/3, against LXRα and LXRβ were evaluated in biochemical binding assays, cellular mammalian two-hybrid (M2H) interaction assays evaluating nuclear receptor co-repressor (NCOR) recruitment, and cellular reporter assays evaluating transcriptional activity (Table 5).

LXRβ [3] = biological target: T3, LXRβ (Homo sapiens, UniProt P55055); assay: LXR Gal4 reporter transient transfection assay (mammalian two-hybrid, HEK293), LXRβ; type: cell-based; details: ligand-binding domain (LBD) of LXRβ, HEK293; read-out: LBD-M2H Gal4β
T3 construct: LXRβ (amino acids 156-461); expressed in transfected cells; host or cells: HEK293
T3 sequence (P55055 156-460): T1 sequence (P55055 156-460 limits assumed)
Summary of the method: (§3)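 HEK293 cells transiently co-transfected with full-length or LBD LXRα/LXRβ fused to NFkB activation domain, GAL4-DBD-fused SRC1 or NCoR cofactor domain, GAL4-responsive firefly luciferase reporter and Renilla control. Compound added 4 h post-transfection (≤0.2% DMSO), incubated 16 h; firefly and Renilla luminescence read sequentially.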

[4] = Pharmacokinetics in mice after single oral dosing (blood/plasma and liver exposure); type: in vivo; details: 20 mg/kg single oral dose, time point 4 h
Experimental: The pharmacokinetics of the compounds was assessed in mice after single dosing and oral administrations. Blood/plasma and liver exposure was measured via LC-MS.
The study design was as follows: • Animals: C57/bl6/J (Janvier) males • Diet: standard rodent chow • Dose: 20 mg/kg • Animal handling: animals were withdrawn from food at least 12 h before administration • Design: single dose oral administration, n=3 animals per group • Sacrifice: at stated time point (4, 12 or 24 h) after administration • Bioanalytics: LC-MS of liver and blood/plasma samples

LXRα [5] = biological target: T4, LXRα (Homo sapiens, UniProt Q13133); assay: LXR Gal4 reporter transient transfection assay (mammalian two-hybrid, HEK293), LXRα; type: cell-based; parameters: expressed in transfected cells; host or cells: HEK293; details: full length (FL) LXRα, HEK293; read-out: FL-M2H Gal4α
T4 sequence (Q13133 1-447): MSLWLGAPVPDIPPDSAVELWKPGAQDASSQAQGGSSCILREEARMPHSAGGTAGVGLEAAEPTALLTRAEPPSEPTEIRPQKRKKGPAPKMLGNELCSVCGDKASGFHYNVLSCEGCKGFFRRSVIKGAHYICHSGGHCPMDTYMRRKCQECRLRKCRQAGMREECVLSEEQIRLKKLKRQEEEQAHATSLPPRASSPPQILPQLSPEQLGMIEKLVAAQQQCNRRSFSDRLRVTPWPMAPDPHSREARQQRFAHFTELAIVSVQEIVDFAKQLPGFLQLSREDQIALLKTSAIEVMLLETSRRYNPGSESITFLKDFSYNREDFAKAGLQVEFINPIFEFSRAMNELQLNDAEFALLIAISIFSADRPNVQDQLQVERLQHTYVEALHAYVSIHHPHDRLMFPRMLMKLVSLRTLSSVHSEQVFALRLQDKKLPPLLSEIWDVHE
Experimental: as §1, §2

LXRβ [6] = biological target: T5, LXRβ (Homo sapiens, UniProt P55055); assay: LXR Gal4 reporter transient transfection assay (mammalian two-hybrid, HEK293), LXRβ; type: cell-based; parameters: LXRβ (amino acids 156-461); expressed in transfected cells; host or cells: HEK293; details: full length (FL) LXRβ, HEK293; read-out: FL-M2H Gal4β
T5 sequence (P55055 1-460): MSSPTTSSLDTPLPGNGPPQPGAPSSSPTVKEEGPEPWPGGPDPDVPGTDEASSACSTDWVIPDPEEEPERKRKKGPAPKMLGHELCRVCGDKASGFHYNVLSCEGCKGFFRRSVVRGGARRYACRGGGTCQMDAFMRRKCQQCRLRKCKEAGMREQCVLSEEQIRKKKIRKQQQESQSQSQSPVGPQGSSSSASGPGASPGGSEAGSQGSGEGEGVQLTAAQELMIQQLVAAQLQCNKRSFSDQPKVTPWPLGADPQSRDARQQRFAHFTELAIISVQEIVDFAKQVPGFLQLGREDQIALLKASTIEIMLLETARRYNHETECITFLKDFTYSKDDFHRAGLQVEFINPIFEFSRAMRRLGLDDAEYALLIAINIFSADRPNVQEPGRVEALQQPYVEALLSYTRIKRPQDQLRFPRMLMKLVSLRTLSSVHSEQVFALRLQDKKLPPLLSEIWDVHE
Summary of the method: as §3

COc1ccc(S(=O)(=O)n2c(-c3ccc(CCC(N)=O)cc3)c(-c3ccsc3C#N)c3ccccc32)cc1 [Compound 28]
EC50 [1]: 1 to 10 µM
EC50 (LXRα [2]): 1 to 10 µM
EC50 (LXRβ [3]): 0.1 to 1 µM

Cc1ccc(S(=O)(=O)n2c(-c3cccc(-c4cccc(C(=O)NS(C)(=O)=O)c4)c3)c(-c3ccsc3C#N)c3ccccc32)cc1 [Compound 32]
EC50 [1]: 0.1 to 1 µM
EC50 (LXRα [2]): 0.1 to 1 µM
EC50 (LXRβ [3]): 0.1 to 1 µM

Cc1ccc(S(=O)(=O)n2c(-c3cccc(-c4ccc(CN5CCN(C)CC5)cc4)c3)c(-c3ccsc3C#N)c3cc(F)ccc32)cc1 [Compound 8]
EC50 [1]: 0.1 to 1 µM
blood/plasma exposure [4]: B (300 nM to ≤1 μM)
liver exposure [4]: D (>3 μM)
liver/blood ratio [4]: B (3 to ≤10)
EC50 (LXRα [5]): 0.1 to 1 µM
EC50 (LXRβ [6]): < 0.1 µM

N#Cc1sccc1-c1c(-c2cncs2)n(S(=O)(=O)c2ccc(Cl)cc2)c2ccccc12 [Compound 25]
EC50 [1]: 1 to 10 µM
EC50 (LXRα [2]): 0.1 to 1 µM
EC50 (LXRβ [3]): < 0.1 µM

COc1ccc(S(=O)(=O)n2c(-c3cccs3)c(-c3ccsc3C#N)c3ccccc32)cc1 [20/14]
EC50 [1]: 0.1 to 1 µM
EC50 (LXRα [2]): < 0.1 µM
EC50 (LXRβ [3]): < 0.1 µM

Cc1cccc(S(=O)(=O)n2c(-c3cccc(N4CC(C(=O)O)C4)c3)c(-c3ccsc3C#N)c3cc(F)ccc32)c1 [3/8]
EC50 [1]: 1 to 10 µM
EC50 (LXRα [2]): 0.1 to 1 µM
EC50 (LXRβ [3]): < 0.1 µM

Cc1ccc(S(=O)(=O)n2c(-c3cccc(C4CC4C(=O)O)c3)c(-c3ccsc3C#N)c3ccccc32)cc1 (stereo not drawn) [Compound 30]
EC50 [1]: 0.1 to 1 µM
EC50 (LXRα [2]): < 0.1 µM
EC50 (LXRβ [3]): < 0.1 µM

N#Cc1sccc1-c1c(-c2cccs2)n(S(=O)(=O)c2ccc(Cl)cc2)c2ccc(O)cc12 [Compound 13]
EC50 [1]: 0.1 to 1 µM
EC50 (LXRα [2]): < 0.1 µM
EC50 (LXRβ [3]): < 0.1 µM

O=S(=O)(c1ccc(Cl)cc1)n1c(-c2cccs2)c(-c2ccsc2Cl)c2ccccc21 [Compound 20]
EC50 [1]: 0.1 to 1 µM
EC50 (LXRα [2]): < 0.1 µM
EC50 (LXRβ [3]): < 0.1 µM

N#Cc1cccc(C#N)c1-c1c(-c2cccc(-c3ccc(C(=O)O)cc3)c2)n(S(=O)(=O)c2ccc(C(F)F)cc2)c2ccc(F)cc12 [11/50]
EC50 [1]: < 0.1 µM
EC50 (LXRα [5]): < 0.1 µM
EC50 (LXRβ [6]): < 0.1 µM

Cc1ccc(S(=O)(=O)n2c(-c3cccc(-c4cncc(S(=O)(=O)CC(=O)O)c4)c3)c(-c3ccsc3C#N)c3ccccc32)cc1 [Compound 5]
EC50 [1]: 0.1 to 1 µM
EC50 (LXRα [5]): 1 to 10 µM
EC50 (LXRβ [6]): 1 to 10 µM

Cc1ccc(S(=O)(=O)n2c(-c3cccc(-c4cc(C)c(C(=O)O)cc4Cl)c3)c(-c3ccsc3C#N)c3cc(F)ccc32)cc1 [Compound 12]
EC50 [1]: 0.1 to 1 µM
EC50 (LXRα [5]): < 0.1 µM
EC50 (LXRβ [6]): < 0.1 µM

N#Cc1sccc1-c1c(-c2cccs2)n(S(=O)(=O)c2ccc(Cl)cc2)c2ccc(C(=O)O)cc12 [Compound 23]
EC50 [1]: > 10 µM
EC50 (LXRα [2]): 0.1 to 1 µM
EC50 (LXRβ [3]): 0.1 to 1 µM

N#Cc1sccc1-c1c(-c2cccs2)n(S(=O)(=O)c2ccc(Cl)cc2)c2ccc(OCC(=O)O)cc12 [Compound 15]
EC50 [1]: > 10 µM
EC50 (LXRα [2]): 1 to 10 µM
EC50 (LXRβ [3]): > 10 µM

From patent US20260083704A1, “LXR MODULATORS WITH BICYCLIC CORE MOIETY FOR TREATING DYSLIPIDEMIAS” (OrsoBio, Inc., priority 2022, published 2026)
